According to patent publication US11780893B2, “Kv1.3 blockers” (Zealand Pharma A/S, priority 2019, dated 2023):
Bridge positions count the residues as written; N and C are the ends. Peptide text beside a SMILES is read from it.

Assays:
Experiment in all cases: cell-based
[1] = biological target: T1, human Kv1.3 voltage-gated K+ channel (Homo sapiens, UniProt P22001); details: inhibition of thallium flux, CHO-DUKX cells with human Kv1.3; read-out: IC50
T1 construct: host or cells: CHO-DUKX

Kv1.1 = biological target: T2, Kv1.1 (Homo sapiens, UniProt Q09470); details: for IC50: CHO cells, whole-cell patch clamp, read-out: Potency IC50 (nM) Kv1.1; for Selectivity Kv1.1/Kv1.3: ratio IC50[Kv1.1]/IC50[Kv1.3]
T2 construct: expressed in transfected cells; host or cells: Chinese Hamster Ovary (CHO)

Kv1.2 = biological target: T3, Kv1.2 (Homo sapiens, UniProt P16389); details: for IC50: CHO cells, whole-cell patch clamp, read-out: Potency IC50 (nM) Kv1.2
T3 construct: expressed in transfected cells; host or cells: Chinese Hamster Ovary (CHO)

Kv1.3 = biological target: T4, Kv1.3 (Homo sapiens, UniProt P22001); details: CHO cells, whole-cell patch clamp; read-out: Potency IC50 (nM) Kv1.3
T4 construct: expressed in transfected cells; host or cells: Chinese Hamster Ovary (CHO)

Kv1.6 = biological target: T5, Kv1.6 (Homo sapiens, UniProt P17658); details: for IC50: CHO cells, whole-cell patch clamp, read-out: Potency IC50 (nM) Kv1.6; for Selectivity Kv1.6/Kv1.3: ratio IC50[Kv1.6]/IC50[Kv1.3]
T5 construct: expressed in transfected cells; host or cells: Chinese Hamster Ovary (CHO)
T5 sequence (P17658 whole entry): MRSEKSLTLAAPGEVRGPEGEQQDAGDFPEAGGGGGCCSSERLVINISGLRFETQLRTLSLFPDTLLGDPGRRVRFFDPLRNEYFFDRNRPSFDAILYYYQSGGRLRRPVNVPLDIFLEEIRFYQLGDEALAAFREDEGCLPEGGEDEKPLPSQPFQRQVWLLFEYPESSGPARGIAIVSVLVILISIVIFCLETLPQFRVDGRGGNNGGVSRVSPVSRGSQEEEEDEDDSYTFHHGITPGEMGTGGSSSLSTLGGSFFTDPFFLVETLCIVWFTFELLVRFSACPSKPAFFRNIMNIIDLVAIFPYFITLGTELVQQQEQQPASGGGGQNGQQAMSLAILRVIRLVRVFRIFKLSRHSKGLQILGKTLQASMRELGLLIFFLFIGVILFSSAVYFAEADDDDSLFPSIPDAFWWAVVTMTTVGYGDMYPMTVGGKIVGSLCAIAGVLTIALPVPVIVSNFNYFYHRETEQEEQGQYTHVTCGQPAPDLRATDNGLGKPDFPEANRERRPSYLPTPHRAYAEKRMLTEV

T3 sequence (P16389 whole entry): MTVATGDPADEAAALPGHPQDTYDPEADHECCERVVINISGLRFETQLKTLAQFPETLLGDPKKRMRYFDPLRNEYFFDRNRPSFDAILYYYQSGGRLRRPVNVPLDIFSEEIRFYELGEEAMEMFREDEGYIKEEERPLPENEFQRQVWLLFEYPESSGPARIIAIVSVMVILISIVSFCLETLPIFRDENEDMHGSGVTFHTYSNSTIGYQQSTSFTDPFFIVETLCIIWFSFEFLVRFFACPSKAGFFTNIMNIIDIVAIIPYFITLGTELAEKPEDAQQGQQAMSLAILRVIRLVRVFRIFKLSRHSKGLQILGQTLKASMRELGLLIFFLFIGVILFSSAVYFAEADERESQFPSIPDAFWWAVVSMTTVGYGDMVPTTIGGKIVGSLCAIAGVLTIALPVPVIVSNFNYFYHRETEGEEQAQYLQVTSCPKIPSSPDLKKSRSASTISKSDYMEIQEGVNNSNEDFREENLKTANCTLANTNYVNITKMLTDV
T2 sequence (Q09470 whole entry): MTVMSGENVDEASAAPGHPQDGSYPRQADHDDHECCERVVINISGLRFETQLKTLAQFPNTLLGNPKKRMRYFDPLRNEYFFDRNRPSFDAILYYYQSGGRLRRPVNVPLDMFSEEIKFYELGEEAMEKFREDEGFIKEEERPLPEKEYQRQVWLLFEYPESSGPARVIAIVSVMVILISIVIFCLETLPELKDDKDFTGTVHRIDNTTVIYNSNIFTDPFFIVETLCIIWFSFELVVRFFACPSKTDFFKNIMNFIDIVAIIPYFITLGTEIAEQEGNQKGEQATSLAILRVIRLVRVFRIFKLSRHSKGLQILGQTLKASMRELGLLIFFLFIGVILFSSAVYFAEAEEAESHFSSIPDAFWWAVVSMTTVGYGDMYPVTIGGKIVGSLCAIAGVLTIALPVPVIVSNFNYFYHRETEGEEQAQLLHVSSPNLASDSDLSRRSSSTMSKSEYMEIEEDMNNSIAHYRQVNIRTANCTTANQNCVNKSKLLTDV
T1 sequence (P22001 whole entry): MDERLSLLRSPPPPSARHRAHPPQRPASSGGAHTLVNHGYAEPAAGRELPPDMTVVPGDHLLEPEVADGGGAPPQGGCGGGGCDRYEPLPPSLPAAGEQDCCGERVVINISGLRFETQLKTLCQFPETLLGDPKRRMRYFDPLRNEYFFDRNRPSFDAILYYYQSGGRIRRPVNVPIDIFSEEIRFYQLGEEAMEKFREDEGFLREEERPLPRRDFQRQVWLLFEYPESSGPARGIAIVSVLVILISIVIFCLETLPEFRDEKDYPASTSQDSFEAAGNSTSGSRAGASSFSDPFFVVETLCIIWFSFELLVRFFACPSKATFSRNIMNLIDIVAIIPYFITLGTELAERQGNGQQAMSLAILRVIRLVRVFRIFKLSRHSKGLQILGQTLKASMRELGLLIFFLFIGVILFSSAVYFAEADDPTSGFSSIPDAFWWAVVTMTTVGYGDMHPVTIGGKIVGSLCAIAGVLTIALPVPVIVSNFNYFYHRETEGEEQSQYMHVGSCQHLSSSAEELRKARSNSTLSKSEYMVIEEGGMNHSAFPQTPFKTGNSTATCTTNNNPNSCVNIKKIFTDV
T4 sequence (P22001 whole entry): as above

| SMILES | IC50 [1] [nM] | IC50 (Kv1.1) [nM] | Selectivity Kv1.1/Kv1.3 (Kv1.1) | IC50 (Kv1.2) [nM] | IC50 (Kv1.3) [nM] | IC50 (Kv1.6) [nM] | Selectivity Kv1.6/Kv1.3 (Kv1.6) | Selectivity Kv1.2/Kv1.3 (Kv1.2; ratio IC50[Kv1.2]/IC50[Kv1.3]) |
| --- | --- | --- | --- | --- | --- | --- | --- | --- |
| CC[C@H](C)[C@@H]1NC(=O)[C@H](C)NC(=O)[C@H](CCCCN)NC(=O)[C@H](CC(C)C)NC(=O)[C@@H]2CSSC[C@@H](C(=O)N[C@@H](Cc3ccc(O)cc3)C(=O)N3CCC[C@H]3C(=O)N[C@@H](CCCNC(=N)N)C(=O)O)NC(=O)[C@H](CCCCN)NC(=O)[C@@H]3CSSC[C@H](NC(=O)[C@H](CCC(=O)O)NC(=O)[C@H](C(C)C)NC(=O)[C@H](CO)NC(=O)[C@H](C)NC(=O)[C@H](CO)NC(=O)[C@@H](NC(=O)[C@H](CCCNC(=N)N)NC(=O)[C@H](CCSC)NC(=O)[C@H](CC(=O)O)NC(=O)[C@H](CCSC)NC(=O)[C@@H](N)CCC(N)=O)CSSC[C@H](NC(=O)[C@H](CCCCN)NC(=O)CNC(=O)[C@H](Cc4ccccc4)NC(=O)CNC(=O)[C@H](CCCNC(=N)N)NC(=O)CNC1=O)C(=O)N[C@@H](CCSC)C(=O)N[C@@H](CC(N)=O)C(=O)N[C@@H](CCCCN)C(=O)N[C@@H](CCCCN)C(=O)N3)C(=O)N[C@@H](CCCCN)C(=O)N[C@@H](CCC(N)=O)C(=O)N[C@@H](CCCCN)C(=O)N2 [Compound 2] (H-QMDMRCSASVECKQKCLKAIGRGFGKCMNKKCKCYPR-OH; disulfide 6-27, 12-32, 16-34) | 0.25 | > 3000 | >2000 | 97 | 1.5 | 1810 | – | – |
| CC[C@H](C)[C@@H]1NC(=O)[C@H](C)NC(=O)[C@H](CCCCN)NC(=O)[C@H](CC(C)C)NC(=O)[C@@H]2CSSC[C@@H](C(=O)N[C@@H](Cc3ccc(O)cc3)C(=O)N3CCC[C@H]3C(=O)N[C@@H](CCCNC(=N)N)C(=O)O)NC(=O)[C@H](CCCCN)NC(=O)[C@@H]3CSSC[C@H](NC(=O)[C@H](CCC(=O)O)NC(=O)[C@H](C(C)C)NC(=O)[C@H](CO)NC(=O)[C@H](C)NC(=O)[C@H](CO)NC(=O)[C@@H](NC(=O)[C@H](CCCNC(=N)N)NC(=O)[C@H](CCSC)NC(=O)[C@H](CCC(=O)O)NC(=O)[C@H](CCSC)NC(=O)[C@@H](N)CC(N)=O)CSSC[C@H](NC(=O)[C@H](CCCCN)NC(=O)CNC(=O)[C@H](Cc4ccccc4)NC(=O)[C@H]([C@@H](C)CC)NC(=O)[C@H](CO)NC(=O)CNC1=O)C(=O)N[C@@H](CCSC)C(=O)N[C@@H](CC(N)=O)C(=O)N[C@@H](CCCCN)C(=O)N[C@@H](CCCCN)C(=O)N3)C(=O)N[C@@H](CCCCN)C(=O)N[C@@H](CCC(N)=O)C(=O)N[C@@H](CCCCN)C(=O)N2 [Compound 12] (H-NMEMRCSASVECKQKCLKAIGSIFGKCMNKKCKCYPR-OH; disulfide 6-27, 12-32, 16-34) | 0.23 | > 3000 | >27600 | 228 | 0.11 | > 3000 | >27600 | – |
| CC[C@H](C)[C@@H]1NC(=O)[C@H](C)NC(=O)[C@H](CCCCN)NC(=O)[C@H](CC(C)C)NC(=O)[C@@H]2CSSC[C@@H](C(=O)N[C@@H](Cc3ccc(O)cc3)C(=O)N3CCC[C@H]3C(=O)N[C@@H](CCCNC(=N)N)C(N)=O)NC(=O)[C@H](CCCCN)NC(=O)[C@@H]3CSSC[C@H](NC(=O)[C@H](CCC(=O)O)NC(=O)[C@H](C(C)C)NC(=O)[C@H](CO)NC(=O)[C@H](C)NC(=O)[C@H](CO)NC(=O)[C@@H](NC(=O)[C@H](CCCNC(=N)N)NC(=O)[C@H](CCSC)NC(=O)[C@H](CC(=O)O)NC(=O)[C@H](CCSC)NC(=O)[C@@H](N)CC(N)=O)CSSC[C@H](NC(=O)[C@H](CCCCN)NC(=O)CNC(=O)[C@H](Cc4ccccc4)NC(=O)[C@H]([C@@H](C)CC)NC(=O)[C@H](CO)NC(=O)CNC1=O)C(=O)N[C@@H](CCSC)C(=O)N[C@@H](CC(N)=O)C(=O)N[C@@H](CCCCN)C(=O)N[C@@H](CCCCN)C(=O)N3)C(=O)N[C@@H](CCCCN)C(=O)N[C@@H](CCC(N)=O)C(=O)N[C@@H](CC(C)C)C(=O)N2 [Compound 18] (H-NMDMRCSASVECKQLCLKAIGSIFGKCMNKKCKCYPR-NH2; disulfide 6-27, 12-32, 16-34) | 0.19 | > 3000 | >12700 | 256 | 0.24 | > 3000 | >12700 | – |
| CC[C@H](C)[C@@H]1NC(=O)[C@H](C)NC(=O)[C@H](CCCCN)NC(=O)[C@H](CC(C)C)NC(=O)[C@@H]2CSSC[C@@H](C(=O)N[C@@H](Cc3ccc(O)cc3)C(=O)N3CCC[C@H]3C(=O)N[C@@H](CCCNC(=N)N)C(N)=O)NC(=O)[C@H](CCCCN)NC(=O)[C@@H]3CSSC[C@H](NC(=O)[C@H](CCC(=O)O)NC(=O)[C@H](C(C)C)NC(=O)[C@H](CO)NC(=O)[C@H](C)NC(=O)[C@H](CO)NC(=O)[C@@H](NC(=O)[C@H](CCCNC(=N)N)NC(=O)[C@H](CCSC)NC(=O)[C@H](CC(=O)O)NC(=O)[C@H](CCSC)NC(=O)[C@@H](N)CC(N)=O)CSSC[C@H](NC(=O)[C@H](CCCCN)NC(=O)CNC(=O)[C@H](Cc4ccccc4)NC(=O)[C@H]([C@@H](C)CC)NC(=O)[C@H](CO)NC(=O)[C@H](CCC(=O)O)NC1=O)C(=O)N[C@@H](CCSC)C(=O)N[C@@H](CC(N)=O)C(=O)N[C@@H](CCCCN)C(=O)N[C@@H](CCCCN)C(=O)N3)C(=O)N[C@@H](CCCCN)C(=O)N[C@@H](CCC(N)=O)C(=O)N[C@@H](CCCCN)C(=O)N2 [Compound 22] (H-NMDMRCSASVECKQKCLKAIESIFGKCMNKKCKCYPR-NH2; disulfide 6-27, 12-32, 16-34) | 0.11 | > 3000 | >10200 | 181 | 0.29 | > 3000 | >10200 | – |
| CC[C@H](C)[C@@H]1NC(=O)[C@H](C)NC(=O)[C@H](CCCCN)NC(=O)[C@H](CC(C)C)NC(=O)[C@@H]2CSSC[C@@H](C(=O)N[C@@H](Cc3ccc(O)cc3)C(=O)N3CCC[C@H]3C(=O)N[C@@H](CCCNC(=N)N)C(N)=O)NC(=O)[C@H](CCCCN)NC(=O)[C@@H]3CSSC[C@H](NC(=O)[C@H](CCC(=O)O)NC(=O)[C@H](C(C)C)NC(=O)[C@H](CO)NC(=O)[C@H](C)NC(=O)[C@H](CCCCN)NC(=O)[C@@H](NC(=O)[C@H](CCCNC(=N)N)NC(=O)[C@H](CCSC)NC(=O)[C@H](CC(=O)O)NC(=O)[C@H](CCSC)NC(=O)[C@@H](N)CC(N)=O)CSSC[C@H](NC(=O)[C@H](CCCCN)NC(=O)CNC(=O)[C@H](Cc4ccccc4)NC(=O)[C@H]([C@@H](C)CC)NC(=O)[C@H](CO)NC(=O)CNC1=O)C(=O)N[C@@H](CCSC)C(=O)N[C@@H](CC(N)=O)C(=O)N[C@@H](CCCCN)C(=O)N[C@@H](CCCCN)C(=O)N3)C(=O)N[C@@H](CCCCN)C(=O)N[C@@H](CCC(N)=O)C(=O)N[C@@H](CCCCN)C(=O)N2 [Compound 25] (H-NMDMRCKASVECKQKCLKAIGSIFGKCMNKKCKCYPR-NH2; disulfide 6-27, 12-32, 16-34) | 0.085 | > 3000 | >34200 | 67 | 0.09 | 363 | – | – |
| CC[C@H](C)[C@@H]1NC(=O)[C@H](C)NC(=O)[C@H](CCCCN)NC(=O)[C@H](CC(C)C)NC(=O)[C@@H]2CSSC[C@@H](C(=O)N[C@@H](Cc3ccc(O)cc3)C(=O)N3CCC[C@H]3C(=O)N[C@@H](CCCNC(=N)N)C(N)=O)NC(=O)[C@H](CCCCN)NC(=O)[C@@H]3CSSC[C@H](NC(=O)[C@H](CCC(=O)O)NC(=O)[C@H](C(C)C)NC(=O)[C@H](CO)NC(=O)[C@H](C)NC(=O)[C@H](CO)NC(=O)[C@@H](NC(=O)[C@H](CCCNC(=N)N)NC(=O)[C@H](CCSC)NC(=O)[C@H](CC(=O)O)NC(=O)[C@H](CCSC)NC(=O)[C@@H](N)CC(N)=O)CSSC[C@H](NC(=O)[C@H](CCCCN)NC(=O)CNC(=O)[C@H](Cc4ccccc4)NC(=O)[C@H](CCCCN)NC(=O)[C@H](CO)NC(=O)CNC1=O)C(=O)N[C@@H](CCSC)C(=O)N[C@@H](CC(N)=O)C(=O)N[C@@H](CCCCN)C(=O)N[C@@H](CCCCN)C(=O)N3)C(=O)N[C@@H](CCCCN)C(=O)N[C@@H](CCC(N)=O)C(=O)N[C@@H](CCCCN)C(=O)N2 [Compound 34] (H-NMDMRCSASVECKQKCLKAIGSKFGKCMNKKCKCYPR-NH2; disulfide 6-27, 12-32, 16-34) | 0.11 | > 3000 | >7100 | 100 | 0.42 | 207 | – | – |
| CC[C@H](C)[C@H](NC(=O)[C@H](C)NC(=O)[C@H](C)NC(=O)[C@H](C)N)C(=O)N[C@@H](CO)C(=O)N[C@H]1CSSC[C@@H]2NC(=O)[C@H](CCCCN)NC(=O)CNC(=O)[C@H](CC(N)=O)NC(=O)[C@H](CCCCN)NC(=O)[C@@H]3CSSC[C@@H](C(N)=O)NC(=O)[C@H](Cc4ccc(O)cc4)NC(=O)[C@H](Cc4ccc(O)cc4)NC(=O)[C@@H]4CSSC[C@H](NC(=O)[C@H](CCCCN)NC(=O)[C@@H]5CCCN5C(=O)[C@@H]5CCCN5C(=O)[C@H](CSSC[C@H](NC(=O)[C@H](CCCCN)NC(=O)[C@H](CCCNC(=N)N)NC(=O)[C@H](CC(N)=O)NC(=O)[C@H](CCSC)NC2=O)C(=O)N[C@@H](CCCCN)C(=O)N4)NC(=O)[C@H](CCC(=O)O)NC(=O)[C@@H]2CCCN2C(=O)[C@H](CO)NC(=O)CNC(=O)[C@H](C(C)C)NC1=O)C(=O)N[C@@H](CCCNC(=N)N)C(=O)N[C@@H](C)C(=O)N[C@@H](CCC(N)=O)C(=O)NCC(=O)N3 [Vm24, reference compound] | – | 0.097 | 0.65 | 4.7 | 0.15 | 21 | 139 | 31 |
